Test results: ChEMBL document CHEMBL3797103, “Synthesis of a dansyl-labeled inhibitor of 17β-hydroxysteroid dehydrogenase type 3 for optical imaging” (Bioorg Med Chem Lett, 2016); call rule not given here

Key:
LNCaP [1] = experiment: Drug uptake in 17betaHSD3 expressing human LNCAP cells at 3 to 50 uM after 4 hrs by flow cytometric analysis; assay type: ADME, cell-based
LNCaP [2] = experiment: Drug localization in 17betaHSD3 expressing human LNCAP cell assessed as localized space around endoplasmic reticulum at 1 uM preincubated for 3 hrs followed by ER tracker addition for the last remaining hour by fluorescent microscopic analysis; assay type: ADME, cell-based
LNCaP [3] = experiment: Drug uptake in wild-type human LNCAP cells at 3 to 50 uM after 4 hrs by flow cytometric analysis; assay type: ADME, cell-based
[4] = target: T1, 17-beta-hydroxysteroid dehydrogenase type 3 (Homo sapiens, UniProt P37058); experiment: Inhibition of 17betaHSD3 (unknown origin) transfected in human LNCAP cells assessed as conversion of [14C]-4-androstene-3,17-dione into [14C]-testosterone after 3 hrs; assay type: cell-based
T1 sequence (P37058 whole entry): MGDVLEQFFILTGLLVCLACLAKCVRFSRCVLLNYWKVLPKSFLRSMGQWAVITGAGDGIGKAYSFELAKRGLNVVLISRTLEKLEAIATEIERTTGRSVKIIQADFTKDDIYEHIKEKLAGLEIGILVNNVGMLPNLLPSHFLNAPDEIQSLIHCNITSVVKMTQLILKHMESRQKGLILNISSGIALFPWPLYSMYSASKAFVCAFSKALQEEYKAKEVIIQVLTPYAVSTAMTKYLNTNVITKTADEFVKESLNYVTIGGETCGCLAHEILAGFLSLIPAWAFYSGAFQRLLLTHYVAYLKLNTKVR

LNCaP [5] = experiment: Drug uptake in 17betaHSD3 expressing human LNCAP cells assessed as mean fluorescence intensity at 30 uM after 4 hrs by flow cytometric analysis; assay type: ADME, cell-based
LNCaP [6] = experiment: Drug uptake in 17betaHSD3 expressing human LNCAP cells assessed as shape of the cells at 10 uM excited at 350 nm after 4 hrs by fluorescence confocal spinning disk microscopic analysis; assay type: ADME, cell-based
[7] = Drug localization in 17betaHSD3 expressing human LNCAP cell assessed as localised around lysosomes at 1 uM after 4 hrs by fluorescent microscopic analysis in the presence of lysosome tracker; assay type: ADME, cell-based
LNCaP [8] = experiment: Drug uptake in wild type human LNCAP cells assessed as shape of the cells at 10 uM excited at 350 nm after 4 hrs by fluorescence confocal spinning disk microscopic analysis; assay type: ADME, cell-based

Row | Compound | Drug uptake (LNCaP [1]) | Drug uptake (LNCaP [2]) | Drug uptake (LNCaP [3]) | IC50 [4] | Flu intensity (LNCaP [5]) | Drug uptake (LNCaP [6]) | Drug uptake [7] | Drug uptake (LNCaP [8])
1 | C[C@@H]1CN(S(=O)(=O)c2cccc3c(N(C)C)cccc23)[C@@H](C)CN1C[C@@]1(O)CC[C@@]2(C)[C@@H](CC[C@@H]3[C@@H]2CC[C@]2(C)C(=O)CC[C@@H]32)C1 | Active | Active | Active | 262 nM | 4 | Active | Active | Not Active
2 | C[C@@H]1CN(S(=O)(=O)c2ccccc2C(F)(F)F)[C@@H](C)CN1C[C@@]1(O)CC[C@@]2(C)[C@@H](CC[C@@H]3[C@@H]2CC[C@]2(C)C(=O)CC[C@@H]32)C1 | – | – | – | 85 nM | – | – | – | –
